Settings: 293.15 K, Liquid, Vibrating tube method

CCCCCCCCCC [decane]
Settings	mass density [kg/m3]
12325 kPa	739.1
12342 kPa	739.1
12359 kPa	739
12381 kPa	739
12401 kPa	739.1
12417 kPa	739
12437 kPa	739.1
12454 kPa	739
12476 kPa	739.3
12499 kPa	739.2
12516 kPa	739.1
12536 kPa	739.1
12556 kPa	739.1
12576 kPa	739.1
12593 kPa	739.2
12610 kPa	739.3
12633 kPa	739.3
12653 kPa	739.2
12677 kPa	739.2
12703 kPa	739.2
12720 kPa	739.2
12744 kPa	739.3
12759 kPa	739.2
12785 kPa	739.3
12809 kPa	739.3
12827 kPa	739.3
12851 kPa	739.3
12872 kPa	739.5
12896 kPa	739.3
12917 kPa	739.5
12939 kPa	739.5
12957 kPa	739.4
12978 kPa	739.4
12999 kPa	739.5
13018 kPa	739.5
13039 kPa	739.5
13058 kPa	739.5
13080 kPa	739.6
13098 kPa	739.5
13127 kPa	739.6
13152 kPa	739.6
13172 kPa	739.7
13197 kPa	739.5
13216 kPa	739.6
13235 kPa	739.6
13251 kPa	739.7
13274 kPa	739.7
13290 kPa	739.7
13309 kPa	739.7
13329 kPa	739.6
13359 kPa	739.6
13385 kPa	739.8
13408 kPa	739.7
13435 kPa	739.7
13459 kPa	739.8
13479 kPa	739.8
13501 kPa	740
13525 kPa	739.9
13548 kPa	739.8
13569 kPa	740
13586 kPa	739.9
13609 kPa	739.9
13626 kPa	739.9
13644 kPa	739.8
13667 kPa	740
13686 kPa	740
13701 kPa	740
13722 kPa	739.9
13745 kPa	740
13766 kPa	739.9
13784 kPa	739.9
13802 kPa	740
13820 kPa	740
13844 kPa	740
13862 kPa	740.1
13881 kPa	739.9
13903 kPa	740.2
13927 kPa	740.1
13943 kPa	740.1
13967 kPa	740.3
13989 kPa	740.1
14008 kPa	740.2
14024 kPa	740.3
14044 kPa	740.1
14061 kPa	740.2
14081 kPa	740.3
14098 kPa	740.3
14121 kPa	740.2
14139 kPa	740.3
14151 kPa	740.3
14167 kPa	740.2
14181 kPa	740.4
14194 kPa	740.3
14205 kPa	740.2
14220 kPa	740.4
14232 kPa	740.3
14245 kPa	740.4
14257 kPa	740.4
14269 kPa	740.2
14281 kPa	740.3
14297 kPa	740.4
14314 kPa	740.4
14325 kPa	740.4
14339 kPa	740.4
14352 kPa	740.4
14363 kPa	740.4
14376 kPa	740.4
14389 kPa	740.4
14404 kPa	740.4
14418 kPa	740.4
14427 kPa	740.5
14443 kPa	740.4
14458 kPa	740.5
14471 kPa	740.4
14483 kPa	740.6
14500 kPa	740.6
14517 kPa	740.5
14529 kPa	740.4
14542 kPa	740.6
14554 kPa	740.4
14566 kPa	740.6
14580 kPa	740.6
14592 kPa	740.5
14605 kPa	740.5
14617 kPa	740.6
14637 kPa	740.6
14650 kPa	740.7
14664 kPa	740.6
14676 kPa	740.7
14691 kPa	740.6
14706 kPa	740.7
14717 kPa	740.7
14735 kPa	740.6
14753 kPa	740.7
14765 kPa	740.7
14779 kPa	740.7
14791 kPa	740.7
14807 kPa	740.7
14821 kPa	740.7
14833 kPa	740.8
14847 kPa	740.7
14859 kPa	740.7
14877 kPa	740.9
14893 kPa	740.7
14910 kPa	740.8
14926 kPa	740.8
14943 kPa	740.9
14959 kPa	740.8
14975 kPa	740.9
14992 kPa	740.9
15008 kPa	740.8
15023 kPa	740.8
15039 kPa	740.9
15050 kPa	740.9
15066 kPa	740.9
15087 kPa	740.9
15102 kPa	740.9
15115 kPa	741
15129 kPa	740.8
15143 kPa	741
15156 kPa	740.9
15175 kPa	741
15192 kPa	741
15209 kPa	740.9
15224 kPa	741
15236 kPa	741
15251 kPa	741.2
15270 kPa	741.1
15288 kPa	741.1
15305 kPa	741.1
15317 kPa	741.1
15339 kPa	741.1
15352 kPa	741
15365 kPa	741.1
15382 kPa	741.1
15393 kPa	741.1
15408 kPa	741.2
15428 kPa	741.1
15443 kPa	741.2
15454 kPa	741
15470 kPa	741.2
15485 kPa	741.2
15503 kPa	741.2
15519 kPa	741.2
15539 kPa	741.2
15556 kPa	741.1
15572 kPa	741.2
15588 kPa	741.1
15604 kPa	741.4
15622 kPa	741.2
15644 kPa	741.2
15658 kPa	741.2
15676 kPa	741.3
15694 kPa	741.4
15710 kPa	741.3
15722 kPa	741.3
15735 kPa	741.3
15751 kPa	741.4
15769 kPa	741.4
15792 kPa	741.3
15809 kPa	741.5
15827 kPa	741.3
15843 kPa	741.3
15857 kPa	741.5
15872 kPa	741.5
15888 kPa	741.4
15909 kPa	741.5
15925 kPa	741.5
15942 kPa	741.5
15959 kPa	741.5
15974 kPa	741.5
15989 kPa	741.5
16007 kPa	741.6
16024 kPa	741.5
16039 kPa	741.6
16056 kPa	741.5
16073 kPa	741.6
16093 kPa	741.6
16108 kPa	741.6
16128 kPa	741.6
16142 kPa	741.6
16167 kPa	741.7
16183 kPa	741.8
16198 kPa	741.7
16215 kPa	741.7
16233 kPa	741.7
16251 kPa	741.8
16267 kPa	741.8
16282 kPa	741.7
16298 kPa	741.7
16314 kPa	741.7
16332 kPa	741.6
16345 kPa	741.8
16369 kPa	741.8
16390 kPa	741.8
16405 kPa	741.8
16426 kPa	741.8
16442 kPa	741.9
16464 kPa	741.8
16484 kPa	741.9
16503 kPa	741.9
16517 kPa	741.9
16533 kPa	741.9
16557 kPa	741.9
16569 kPa	741.9
16584 kPa	741.8
16597 kPa	741.9
16615 kPa	741.9
16628 kPa	742
16646 kPa	742
16662 kPa	742.1
16681 kPa	742
16694 kPa	742
16705 kPa	742.1
16717 kPa	742
16728 kPa	742
16745 kPa	742.2
16761 kPa	742
16772 kPa	742.1
16786 kPa	742
16800 kPa	742
16814 kPa	742
16828 kPa	742.2
16842 kPa	742
16860 kPa	742.1
16874 kPa	742.1
16892 kPa	742.1
16905 kPa	742.1
16923 kPa	742.2
16935 kPa	742.1
16956 kPa	742.1
16972 kPa	742.3
16986 kPa	742.2
